Five compounds from US8927580B2, “Thiosemicarbazone compounds and use in the treatment of cancer” (Oncochel Therapeutics LLC, priority 2010, dated 2015) can be followed below.

Series [1] in a line: DMS-53 xenograft i.v. study: body and organ weights, haematology, histology. As to conditions: for HCT / HGB / PLT / RBC / WBC / Body weight (% of initial weight) / Brain weight / Heart weight / Kidney weight / Liver weight / Spleen weight / weight loss (% of initial body weight): i.v.; for HCT / HGB / PLT / RBC / WBC: average; for weight loss (% of initial body weight): after 25 days. The class given is in vivo, nude mice (BALBc nu/nu).

The subject of series [2] is DMS-53 human lung carcinoma. The experiment in a line: DMS-53 xenograft in nude mice, oral gavage: tumour growth. The series is classed as in vivo, nude mice (BALBc nu/nu). Conditions: for Tumour weight: 21 days; for net tumour size (% of initial tumour volume): after 21 days.
The nature of series [3]: DMS-53 xenograft oral study: body and organ weights, haematology, biochemistry, histology. The class given is in vivo, nude mice (BALBc nu/nu).
Series [4] concerns DMS-53 human lung carcinoma. The experiment in a line: DMS-53 xenograft in nude mice, i.v. administration: tumour growth. The series is classed as in vivo, nude mice (BALBc nu/nu).
Series [5] has as its system PANC 1 human pancreatic carcinoma. Briefly: PANC 1 xenograft in nude mice: tumour growth. The class given is in vivo, nude mice (BALBc nu/nu). As for the experimental part:
FIG. 5). […] (5 mg/kg) or vehicle control.

For series [6] the following is noted: mouse, in vivo.
In series [7] the test system is CAPAN-2 pancreatic cancer cells. Briefly: MTT proliferation assay, CAPAN-2. Conditions: Homo sapiens; CAPAN-2, MTT, 72 h. The class given is cell-based. As for the experimental part: (§1) The pancreatic cancer cell lines, including MIAPaCa-2, PANC 1, CAPAN-2 and CFPAC-1 were a generous gift from Prof. Andrew Biankin (Garvan Institute, NSW, Australia). The MIAPaCa-2, PANC 1 and CFPAC-1 cell lines were grown in DMEM medium (Invitrogen) and CAPAN-2 cells were grown in McCoy's medium (Invitrogen). All media was supplemented with 10% (v/v) fetal calf serum (Invitrogen), 1% (v/v) non-essential amino acids (Invitrogen), 1% (v/v) sodium pyruvate (Invitrogen), 2 mM L-glutamine (Invitrogen), 100 μg/mL of streptomycin (Invitrogen), 100 U/ml penicillin (Invitrogen), and 0.28 μg/mL of fungizone.
(§2) To further examine the spectrum of anti-proliferative activity, Dp4cycH4mT was tested against pancreatic cancer in vitro, performing MTT proliferation assays with PANC 1, MIAPaCa-2, CFPAC-1 and CAPAN-2 pancreatic cancer cells. As a comparison, currently used treatments for pancreatic cancer including gemcitabine and 5-fluorouracil were also tested. The iron chelator, DFO, was included as a positive control.
(§3) Table 2A. Anti-proliferative activity of Dp4cycH4mT against pancreatic cancer cell lines. Growth and antiproliferative activity IC50 (μM) values of Dp4cycH4mT in a variety of pancreatic cell lines and in comparison to DFO and the clinically used drugs gemcitabine and 5-fluorouracil as determined by the MTT assay. Cells were seeded and allowed to attach to wells for 24 h and then incubated for 72 h at 37° C. with control medium or the chelators. Results are mean±SD (3 experiments).
(§4) Table 2B. Anti-proliferative activity of Dp4cycH4mT against pancreatic cancer cell lines. IC90 (μM) values of Dp4cycH4mT in a variety of pancreatic cell lines and in comparison to DFO and the clinically used drugs gemcitabine and 5-fluorouracil as determined by the MTT assay. Cells were seeded and allowed to attach to wells for 24 h and then incubated for 72 h at 37° C. with control medium or the chelators. Results are mean±SD (3 experiments).
(In general: Formazan colour is commonly taken as a measure of viable cells.)

Series [8] deals with SK-N-MC neuroepithelioma cell line. Briefly: MTT anti-proliferative assay in SK-N-MC cells. The series is classed as cell-based, human. Conditions: 72 h at 37° C., mean±SD (3 experiments). As for the experimental part:
The cells were maintained in minimum essential media (MEM; Invitrogen, CA, USA) which contained 10% fetal calf serum (FCS; JRH Biosciences, Kansas, USA), 1% non-essential amino acids (Gibco, Victoria, Australia), 1% penicillin/streptomycin/glutamine (Gibco, VIC, Australia) and fungizone ([…]; Squibb Pharmaceuticals, Montreal, Canada).
The ability of the compounds to inhibit cellular proliferation was assessed initially in SK-N-MC cells by the MTT assay.
Table 1. […] Cells were seed and allowed to attach to wells for 24 h and then incubated for 72 h at 37° C. with control medium or the chelators.

Series [9] has as its system SK-N-MC neuroepithelioma cells. The experiment in a line: Iron uptake assay (59Fe uptake from 59Fe-transferrin). The series is classed as cell-based, human. As to conditions: 25 μM chelator, 3 h at 37° C., 59Fe-Tf. The method, then:
Cells were cultured in the same way as for the iron efflux experiments. […] At the end of the incubation the culture dishes were placed on ice, the media aspirated, and the cells washed 4 times with ice cold PBS. Protease (1 mL; 1 mg/mL; Sigma-Aldrich, NSW, Australia) solution was added to each plate and allowed to incubate on ice for 30 min. This facilitated the removal of membrane bound ^59Fe-Tf. Cells were then scraped from the plastic surface using a Teflon spatula and collected in Eppendorf tubes. These were centrifuged at 10000 rpm and 4° C. for 3 min. The supernatant was then transferred into counting tubes and the cell pellet resuspended in PBS before also being transferred into another set of counting tubes. Radioactivity was measured using a Wallac Wizard 3″ Gamma Counter (PerkinElmer, MA, USA). Results are expressed as average ^59Fe content of the cellular fraction as a percentage of the control value.

In series [10] the test system is MIAPaCa-2 pancreatic cancer cells. Briefly: MTT proliferation assay, MIAPaCa-2. The series is classed as cell-based. As to conditions: Homo sapiens, MIA PaCa-2; MIAPaCa-2, MTT, 72 h. As for the experimental part: as §1, §2, §3, §4
The test system of series [11] is CFPAC-1 pancreatic cancer cells. Briefly: MTT proliferation assay, CFPAC-1. The series is classed as cell-based. As to conditions: Homo sapiens; CFPAC-1, MTT, 72 h. The method, then:
as §1, §2, §3, §4

For series [12], the system named is PANC 1 pancreatic cancer cells. Briefly: MTT proliferation assay, PANC 1. The class given is cell-based. Conditions: Homo sapiens; PANC 1, MTT, 72 h. As for the experimental part:
as §1, §2, §3, §4

Series [13] concerns SK-N-MC neuroepithelioma cells. Briefly: Iron efflux assay (59Fe release from pre-labeled cells). Conditions: 25 μM chelator, 3 h at 37° C. The class given is cell-based, human. The method, then:
The culture dishes were then placed on ice, the supernatant containing excess ^59Fe-Tf was aspirated and the cells washed 4 times with ice-cold PBS. […] After 3 h the culture dishes were again placed on ice, the media was collected in counting tubes and this provided a measurement of released ^59Fe. Ice-cold PBS (1 mL) was added to plates containing cells and cells were scraped from the plastic surface using a Teflon spatula and also collected in counting tubes. These tubes represent the intracellular ^59Fe content. Results are expressed as total ^59Fe released as a percentage of total ^59Fe present. Radioactivity was measured using a Wallac Wizard 3″ Gamma Counter (PerkinElmer, MA, USA).

Structures can show the parent of a compound that is named as a salt.

With `CCN(C)C(=S)NN=C(c1ccccn1)c1ccccn1` [Dp4e4mT.HCl, di-2-pyridylketone 4-ethyl-4-methyl-3-thiosemicarbazone], in [1] (2 weeks i.v., Dp44mT 0.75 mg/kg, Dp4e4mT.HCl 4 and 6 mg/kg), the “histology of the liver, spleen, kidney, brain or tumour (H & E) vs control” value was “no significant differences”. The “myocardial lesions (Gomori-Trichrome stain)” value in [1] (2 weeks i.v., Dp44mT 0.75 mg/kg, Dp4e4mT.HCl 4 or 6 mg/kg) was “did not induce myocardial lesions”. The “change in red blood cell count, haemoglobin or white blood cell count” value in series [1] (after 2 weeks, Dp44mT 0.75 mg/kg, Dp4e4mT.HCl 1.5, 4 or 6 mg/kg i.v.) is “no significant change”. Moreover, in series [1] (1.5 mg), the HCT is 0.4, the HGB was determined as 150.60 g/L, the PLT is 766.4 10 × 9 cells/L and the RBC is reported as 8.76 10 × 12 cells/L. The WBC in series [1] (1.5 mg) is reported as 3.34 10 × 9 cells/L. Also, in series [1] (1.5 mg/kg), the “Body weight (% of initial weight)” value is reported as 95.14 ± 0.97 % initial weight, the Brain weight came out at 0.26 ± 0.13 g, the Heart weight was determined as 0.1 ± 0.004 g and the Kidney weight was 0.26 ± 0.01 g. Also, in series [1] (1.5 mg/kg), the Liver weight came out at 1.01 ± 0.02 g and the Spleen weight was found to be 0.11 ± 0.01 g. Besides, in [1] (4 mg), the HCT came out at 0.47, the HGB amounted to 153.75 g/L, the PLT is reported as 1224.5 10 × 9 cells/L and the RBC is given as 10.74 10 × 12 cells/L. Moreover, the WBC in series [1] (4 mg) is recorded as 2.94 10 × 9 cells/L. For the same compound, in [1] (4 mg/kg), the “Body weight (% of initial weight)” value is recorded as 99.41 ± 1.75 % initial weight, the Brain weight came to 0.36 ± 0.01 g, the Heart weight was determined as 0.1 ± 0.01 g and the Kidney weight came out at 0.26 ± 0.01 g. Also, in [1] (4 mg/kg), the Liver weight was 1.03 ± 0.02 g, the Spleen weight was 0.08 ± 0.003 g and the “weight loss (% of initial body weight)” value came to 0.6%. Besides, in series [1] (6 mg), the HCT is reported as 0.41, the HGB is recorded as 132.33 g/L, the PLT is 1238 10 × 9 cells/L and the RBC is listed as 9.33 10 × 12 cells/L. For the same compound, the WBC in [1] (6 mg) is 4.63 10 × 9 cells/L. In addition, in series [1] (6 mg/kg), the “Body weight (% of initial weight)” value came to 93.38 ± 3.96 % initial weight, the Brain weight was 0.36 ± 0.03 g, the Heart weight is reported as 0.11 ± 0.01 g and the Kidney weight stood at 0.27 ± 0.01 g. Also, in series [1] (6 mg/kg), the Liver weight came to 1.1 ± 0.08 g, the Spleen weight is listed as 0.089 ± 0.01 g and the “weight loss (% of initial body weight)” value is 7%. Further, in [2] (2.5 mg/kg), the Tumour weight came to 0.63 g and the “net tumour size (% of initial tumour volume)” value amounted to 645%. The “net tumour size (% of initial tumour volume)” value in series [2] (5 mg/kg) is given as 733%. Besides, the Tumour weight in series [2] (10 mg/kg) turned out to be 0.46 g. Also, the “myocardial lesions (Gomori-Trichrome stain)” value in series [3] (Dp44mT 0.75 mg/kg, Dp4e4mT.HCl 3 weeks at 2.5, 5, 7.5 and 10 mg/kg oral) is given as “did not induce myocardial lesions”. Moreover, the “histology of the liver, spleen, kidney, brain or tumour (H & E) vs control” value in [3] (Dp44mT 2 weeks at 0.75 mg/kg, Dp4e4mT.HCl 3 weeks at 2.5, 5, 7.5 and 10 mg/kg oral) is given as “no significant differences”. Moreover, in [3] (oral gavage 21 days, 5 mg/kg), the “Total Iron-Binding Capacity (TIBC)” value worked out at 53.1 ± 1.2 µmol/L. For the same compound, in [3] (oral gavage 21 days, 10 mg/kg), the “Alkaline Phosphatase (ALP)” value is reported as 89.5±4.5 U/L. The “Body weight (% initial)” value in series [3] (oral, 10 mg/kg) is 94 % initial. The Tumour weight in series [4] (1.5 mg/kg) came out at 0.48 ± 0.6 g. For the same compound, in series [4] (4 mg/kg), the Tumour weight was found to be 0.11 ± 0.09 g. Also, the Tumour weight in [4] (6 mg/kg) worked out at 0.04 ± 0.03 g.
With `CN(C(=S)NN=C(c1ccccn1)c1ccccn1)C1CCCCC1` [Dp4cycH4mT.HCl, di-2-pyridylketone 4-cyclohexyl-4-methyl-3-thiosemicarbazone], the “average tumour size (% of the original tumour size)” value in series [5] (after 6 weeks, 5 mg/kg i.v. 5 days/week) is 112%. The compound further displayed a final tumour weight in [5] (after 43 days, 5 mg/kg i.v.) of 40 ± 12 mg. In series [6], the “MYOCARDIUM Fibrosis” value is listed as “−”, the “MYOCARDIUM HP (histopathological changes)” value is recorded as “N”, the “SPLEEN HPC (score for the presence of haematopoietic cells in the splenic red pulp)” value is given as “N” and the “iron deposits in the kidney” value was “iron deposits were observed”.
Broadly, the IC50 is the concentration at which inhibition is half-maximal. A lower IC50 goes with greater potency. By IC90 is commonly meant the point of the concentration-response curve where the effect stands at 90%. A low value points to an effect from little substance. Turning to `CC(=O)N(O)CCCCCNC(=O)CCC(=O)N(O)CCCCCNC(=O)CCC(=O)N(O)CCCCCN` [DFO, desferrioxamine], the IC50 in series [7] stood at 7 ± 5.4 µM; in series [8] (Homo sapiens) it was 13.4 ± 3.7 µM; in series [10], 38.7 ± 6.2 µM; in [11], 14.7 ± 3.1 µM; in series [12], 9.5 ± 1.4 µM. Moreover, the IC90 in series [7], in series [10], in series [11] and in [12] was more than 80 µM in each case. Also, the “cellular 59Fe uptake (% of the control)” value in series [9] came out at 84%. Moreover, in [13], the “cellular 59Fe mobilised (59Fe released as percentage of total 59Fe)” value was found to be 16%.
For `O=C(NN=Cc1c(O)ccc2ccccc12)c1ccncc1` [compound 311, 2-hydroxy-1-naphthylaldehyde isonicotinoyl hydrazone, reference compound], the IC50 in [8] stood at 0.72 ± 0.32 µM. The “cellular 59Fe uptake (% of the control)” value in [9] came to 5%.
`O=c1[nH]cc(F)c(=O)[nH]1` [5-fluorouracil]: the IC50 came out at 59.2 ± 24.2 µM in series [7], 24.3 ± 6.3 µM in series [10], 41.2 ± 1.1 µM in series [11] and 62.3 ± 6.5 µM in [12]. Also, the IC90 in series [7] was more than 80 µM; in [10] it was more than 5 µM; in [11], more than 40 µM; in series [12], more than 20 µM.
